Results as given in patent US11649255B2, “Indazoles as hematopoietic progenitor kinase 1 (HPK1) inhibitors and methods using same” (1st Biotherapeutics, Inc., priority 2020, dated 2023).

Each compound was assayed against recombinant human HPK1 (Homo sapiens (Human), UniProt Q92918) (assay: HPK1 kinase assay (ADP-Glo)). Conditions: 25 μM ATP, MBP substrate.
Type: biochemical
Method in brief: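 Activity was read as ADP formed, detected by ADP-Glo luminescence after the reaction of 5 ng recombinant human HPK1 with MBP and ATP (stocks 0.5 μg/μl and 25 μM) for 40 min at 30 °C. Buffer was Tris pH 7.5 with MgCl2, BSA and DTT, with compound in 0.5% DMSO. IC50 came from inhibition curves.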

Sequence of recombinant human HPK1 (Q92918 whole entry): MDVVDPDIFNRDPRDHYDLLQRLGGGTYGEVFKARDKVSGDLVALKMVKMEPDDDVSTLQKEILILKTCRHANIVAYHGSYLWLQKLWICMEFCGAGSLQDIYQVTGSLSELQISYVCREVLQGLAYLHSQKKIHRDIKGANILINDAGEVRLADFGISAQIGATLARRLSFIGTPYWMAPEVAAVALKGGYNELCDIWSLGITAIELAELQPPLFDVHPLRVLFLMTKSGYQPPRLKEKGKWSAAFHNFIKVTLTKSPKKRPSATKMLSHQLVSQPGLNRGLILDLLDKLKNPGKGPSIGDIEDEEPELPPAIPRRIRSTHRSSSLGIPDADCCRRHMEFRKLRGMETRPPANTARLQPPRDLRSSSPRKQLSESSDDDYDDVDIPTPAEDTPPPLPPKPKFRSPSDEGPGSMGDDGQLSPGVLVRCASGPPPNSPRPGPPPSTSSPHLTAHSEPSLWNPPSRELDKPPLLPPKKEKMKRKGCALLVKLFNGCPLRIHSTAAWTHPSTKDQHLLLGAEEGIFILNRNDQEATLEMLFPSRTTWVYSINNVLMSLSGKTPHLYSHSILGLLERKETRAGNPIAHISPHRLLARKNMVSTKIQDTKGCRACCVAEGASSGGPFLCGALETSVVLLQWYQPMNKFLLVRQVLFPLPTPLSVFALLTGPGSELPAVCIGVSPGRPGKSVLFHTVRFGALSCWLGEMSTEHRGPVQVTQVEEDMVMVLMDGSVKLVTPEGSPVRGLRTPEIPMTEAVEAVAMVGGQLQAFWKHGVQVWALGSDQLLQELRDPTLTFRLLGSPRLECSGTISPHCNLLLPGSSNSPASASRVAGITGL

Row | SMILES | IC50 [nM]
1 | N#C/C=C/c1c(F)c(Cl)c(-c2ccn3nc(NC(=O)[C@@H]4C[C@@H]4F)cc3c2)c2cn[nH]c12 [Example 633, (1S,2S)-N-(5-(5-chloro-7-((E)-2-cyanovinyl)-6-fluoro-1H-indazol-4-yl)pyrazolo[1,5-a]pyridin-2-yl)-2-fluorocyclopropane-1-carboxamide] | < 100
2 | O=C(Nc1cc2cc(-c3c(Cl)c(F)c(N4CC[S+]([O-])CC4)c4[nH]ncc34)ccn2n1)[C@@H]1C[C@@H]1F [Example 635, (1S,2S)-N-(5-(5-chloro-6-fluoro-7-(1-oxidothiomorpholino)-1H-indazol-4-yl)pyrazolo[1,5-a]pyridin-2-yl)-2-fluorocyclopropane-1-carboxamide] | < 100
3 | O=C(Nc1cc2cc(-c3c(Cl)c(F)c(-n4cccc4)c4[nH]ncc34)ccn2n1)[C@@H]1C[C@@H]1F [Example 637, (1S,2S)-N-(5-(5-chloro-6-fluoro-7-(1H-pyrrol-1-yl)-1H-indazol-4-yl)pyrazolo[1,5-a]pyridin-2-yl)-2-fluorocyclopropane-1-carboxamide] | < 100
4 | CC(C#N)N(C(=O)OCc1ccccc1)c1c(F)c(Cl)c(-c2ccn3nc(NC(=O)[C@@H]4C[C@@H]4F)cc3c2)c2cn[nH]c12 (stereo partly drawn) [Example 643, benzyl (5-chloro-6-fluoro-4-(2-((1S,2S)-2-fluorocyclopropane-1-carboxamido)pyrazolo[1,5-a]pyridin-5-yl)-1H-indazol-7-yl)(1-cyanoethyl)carbamate] | 101 to 500
5 | Cc1cccn1-c1c(F)c(Cl)c(-c2ccn3nc(NC(=O)[C@@H]4C[C@@H]4F)cc3c2)c2cn[nH]c12 [Example 644, (1S,2S)-N-(5-(5-chloro-6-fluoro-7-(2-methyl-1H-pyrrol-1-yl)-1H-indazol-4-yl)pyrazolo[1,5-a]pyridin-2-yl)-2-fluorocyclopropane-1-carboxamide] | < 100
6 | CSc1c(F)c(Cl)c(-c2ccn3nc(NC(=O)O[C@@H]4COC[C@H]4C)cc3c2)c2cn[nH]c12 [Example 645, (3S,4R)-4-methyltetrahydrofuran-3-yl (5-(5-chloro-6-fluoro-7-(methylthio)-1H-indazol-4-yl)pyrazolo[1,5-a]pyridin-2-yl)carbamate] | < 100
7 | C[C@H]1[C@H](C(=O)Nc2cc3cc(-c4c(Cl)c(F)c(N(C)C)c5[nH]ncc45)ccn3n2)[C@H]1c1cnn(C)c1 [Example 646, (1S,2R,3S)-N-(5-(5-chloro-7-(dimethylamino)-6-fluoro-1H-indazol-4-yl)pyrazolo[1,5-a]pyridin-2-yl)-2-methyl-3-(1-methyl-1H-pyrazol-4-yl)cyclopropane-1-carboxamide] | < 100
8 | CN(C)c1c(F)c(Cl)c(-c2ccn3nc(NC(=O)NC4CC4)cc3c2)c2cn[nH]c12 [Example 647, 1-(5-(5-chloro-7-(dimethylamino)-6-fluoro-1H-indazol-4-yl)pyrazolo[1,5-a]pyridin-2-yl)-3-cyclopropylurea] | < 100
9 | C[C@@H]1[C@H](C(=O)Nc2cc3cc(-c4c(Cl)c(F)c(N(C)C)c5[nH]ncc45)ccn3n2)[C@H]1c1cnn(C)c1 [Example 648, (1S,2S,3S)-N-(5-(5-chloro-7-(dimethylamino)-6-fluoro-1H-indazol-4-yl)pyrazolo[1,5-a]pyridin-2-yl)-2-methyl-3-(1-methyl-1H-pyrazol-4-yl)cyclopropane-1-carboxamide] | < 100
10 | CN(C)C(=O)c1ccn(-c2c(F)c(Cl)c(-c3ccn4nc(NC(=O)[C@@H]5C[C@@H]5F)cc4c3)c3cn[nH]c23)c1 [Example 649, 1-(5-chloro-6-fluoro-4-(2-((1S,2S)-2-fluorocyclopropane-1-carboxamido)pyrazolo[1,5-a]pyridin-5-yl)-1H-indazol-7-yl)-N,N-dimethyl-1H-pyrrole-3-carboxamide] | < 100
11 | CC(NC=O)c1c(F)c(Cl)c(-c2ccn3nc(NC(=O)[C@@H]4C[C@@H]4F)cc3c2)c2cn[nH]c12 (stereo partly drawn) [Example 659, (1S,2S)-N-(5-(5-chloro-6-fluoro-7-(1-formamidoethyl)-1H-indazol-4-yl)pyrazolo[1,5-a]pyridin-2-yl)-2-fluorocyclopropane-1-carboxamide] | < 100
12 | CCC(=O)NC(C)c1c(F)c(Cl)c(-c2ccn3nc(NC(=O)[C@@H]4C[C@@H]4F)cc3c2)c2cn[nH]c12 (stereo partly drawn) [Example 660, (1S,2S)-N-(5-(5-chloro-6-fluoro-7-(1-propionamidoethyl)-1H-indazol-4-yl)pyrazolo[1,5-a]pyridin-2-yl)-2-fluorocyclopropane-1-carboxamide] | < 100

Results, then the compound that gave them:

Row | IC50 [nM] | SMILES
13 | < 100 | O=C(Nc1cc2cc(-c3c(Cl)c(F)c(CF)c4[nH]ncc34)ccn2n1)[C@@H]1C[C@@H]1F [Example 634, (1S,2S)-N-(5-(5-chloro-6-fluoro-7-(fluoromethyl)-1H-indazol-4-yl)pyrazolo[1,5-a]pyridin-2-yl)-2-fluorocyclopropane-1-carboxamide]
14 | < 100 | N#CCNc1c(F)c(Cl)c(-c2ccn3nc(NC(=O)[C@@H]4C[C@@H]4F)cc3c2)c2cn[nH]c12 [Example 636, (1S,2S)-N-(5-(5-chloro-7-((cyanomethyl)amino)-6-fluoro-1H-indazol-4-yl)pyrazolo[1,5-a]pyridin-2-yl)-2-fluorocyclopropane-1-carboxamide]
15 | < 100 | CC(C)(C#N)Nc1c(F)c(Cl)c(-c2ccn3nc(NC(=O)[C@@H]4C[C@@H]4F)cc3c2)c2cn[nH]c12 [Example 638, (1S,2S)-N-(5-(5-chloro-7-((2-cyanopropan-2-yl)amino)-6-fluoro-1H-indazol-4-yl)pyrazolo[1,5-a]pyridin-2-yl)-2-fluorocyclopropane-1-carboxamide]
16 | < 100 | C=C(C)c1c(F)c(Cl)c(-c2ccn3nc(NC(=O)[C@@H]4C[C@@H]4F)cc3c2)c2cn[nH]c12 [Example 639, (1S,2S)-N-(5-(5-chloro-6-fluoro-7-(prop-1-en-2-yl)-1H-indazol-4-yl)pyrazolo[1,5-a]pyridin-2-yl)-2-fluorocyclopropane-1-carboxamide]
17 | < 100 | CC(C)c1c(F)c(Cl)c(-c2ccn3nc(NC(=O)[C@@H]4C[C@@H]4F)cc3c2)c2cn[nH]c12 [Example 640, (1S,2S)-N-(5-(5-chloro-6-fluoro-7-isopropyl-1H-indazol-4-yl)pyrazolo[1,5-a]pyridin-2-yl)-2-fluorocyclopropane-1-carboxamide]
18 | < 100 | CC(C#N)Nc1c(F)c(Cl)c(-c2ccn3nc(NC(=O)[C@@H]4C[C@@H]4F)cc3c2)c2cn[nH]c12 (stereo partly drawn) [Example 641, (1S,2S)-N-(5-(5-chloro-7-((1-cyanoethyl)amino)-6-fluoro-1H-indazol-4-yl)pyrazolo[1,5-a]pyridin-2-yl)-2-fluorocyclopropane-1-carboxamide]
19 | < 100 | O=C(Nc1cc2cc(-c3c(Cl)c(F)c(N4CCC(F)C4)c4[nH]ncc34)ccn2n1)[C@@H]1C[C@@H]1F (stereo partly drawn) [Example 642, (1S,2S)-N-(5-(5-chloro-6-fluoro-7-(3-fluoropyrrolidin-1-yl)-1H-indazol-4-yl)pyrazolo[1,5-a]pyridin-2-yl)-2-fluorocyclopropane-1-carboxamide]
20 | < 100 | CC(C)Oc1c(F)c(Cl)c(-c2ccn3nc(NC(=O)[C@@H]4C[C@@H]4F)cc3c2)c2cn[nH]c12 [Example 650, (1S,2S)-N-(5-(5-chloro-6-fluoro-7-isopropoxy-1H-indazol-4-yl)pyrazolo[1,5-a]pyridin-2-yl)-2-fluorocyclopropane-1-carboxamide]
21 | < 100 | O=C(Nc1cc2cc(-c3c(Cl)c(F)c(C4CCCC4)c4[nH]ncc34)ccn2n1)[C@@H]1C[C@@H]1F [Example 651, (1S,2S)-N-(5-(5-chloro-7-cyclopentyl-6-fluoro-1H-indazol-4-yl)pyrazolo[1,5-a]pyridin-2-yl)-2-fluorocyclopropane-1-carboxamide]
22 | < 100 | CC(Nc1c(F)c(Cl)c(-c2ccn3nc(NC(=O)[C@@H]4C[C@@H]4F)cc3c2)c2cn[nH]c12)C1CC1 (stereo partly drawn) [Example 653, (1S,2S)-N-(5-(5-chloro-7-((1-cyclopropylethyl)amino)-6-fluoro-1H-indazol-4-yl)pyrazolo[1,5-a]pyridin-2-yl)-2-fluorocyclopropane-1-carboxamide]
23 | < 100 | O=C(Nc1cc2cc(-c3c(Cl)c(F)c(NCC4CC4)c4[nH]ncc34)ccn2n1)[C@@H]1C[C@@H]1F [Example 654, (1S,2S)-N-(5-(5-chloro-7-((cyclopropylmethyl)amino)-6-fluoro-1H-indazol-4-yl)pyrazolo[1,5-a]pyridin-2-yl)-2-fluorocyclopropane-1-carboxamide]
24 | < 100 | COC[C@H](C)c1c(F)c(Cl)c(-c2ccn3nc(NC(=O)[C@@H]4C[C@@H]4F)cc3c2)c2cn[nH]c12 [Example 655, (1S,2S)-N-(5-(5-chloro-6-fluoro-7-((R)-1-methoxypropan-2-yl)-1H-indazol-4-yl)pyrazolo[1,5-a]pyridin-2-yl)-2-fluorocyclopropane-1-carboxamide]
25 | < 100 | COC[C@@H](C)c1c(F)c(Cl)c(-c2ccn3nc(NC(=O)[C@@H]4C[C@@H]4F)cc3c2)c2cn[nH]c12 [Example 656, (1S,2S)-N-(5-(5-chloro-6-fluoro-7-((S)-1-methoxypropan-2-yl)-1H-indazol-4-yl)pyrazolo[1,5-a]pyridin-2-yl)-2-fluorocyclopropane-1-carboxamide]
26 | < 100 | CC(Nc1c(F)c(Cl)c(-c2ccn3nc(NC(=O)[C@@H]4C[C@@H]4F)cc3c2)c2cn[nH]c12)C(F)F (stereo partly drawn) [Example 657, (1S,2S)-N-(5-(5-chloro-7-((1,1-difluoropropan-2-yl)amino)-6-fluoro-1H-indazol-4-yl)pyrazolo[1,5-a]pyridin-2-yl)-2-fluorocyclopropane-1-carboxamide]
27 | < 100 | O=C(Nc1cc2cc(-c3c(Cl)c(F)c(C4CC(O)CO4)c4[nH]ncc34)ccn2n1)[C@@H]1C[C@@H]1F (stereo partly drawn) [Example 658, (1S,2S)-N-(5-(5-chloro-6-fluoro-7-(4-hydroxytetrahydrofuran-2-yl)-1H-indazol-4-yl)pyrazolo[1,5-a]pyridin-2-yl)-2-fluorocyclopropane-1-carboxamide]
